Literature values, collected in US20110053879A1, “[…] AND AMRUBICIN TO TREAT LUNG CANCER” (priority 2008, published 2011).

Key:
[1] = a specific crystalline form (JP 11-222497 A)
human tumor xenografts = conditions: several human tumor xenografts implanted in nude mice
[2] = preclinical studies
stage III or IV non-SCLC = conditions: 45 mg/m^2 on days 1 to 3; chemotherapy-naive patients; intent-to-treat analysis
extensive-stage SCLC = conditions: 45 mg/m^2 on days 1 to 3; chemotherapy-naive patients; intent-to-treat analysis
[3] = phase II trial

Row | Structure (SMILES) | heat stability [1] | strength as a DNA intercalator relative to doxorubicin (weaker) (DNA) | antitumor activity compared with doxorubicin (human tumor xenografts) | cardiotoxicity [2] | response rate, stage III or IV non-SCLC (stage III or IV non-SCLC) [%] | response rate, extensive-stage SCLC (extensive-stage SCLC) [%] | grade 3 or 4 anemia [3] [%] | grade 3 or 4 anorexia [3] [%] | grade 3 or 4 leukopenia [3] [%] | grade 3 or 4 nausea/vomiting [3] [%] | grade 3 or 4 neutropenia [3] [%] | grade 3 or 4 thrombocytopenia [3] [%]
1 | CC(=O)[C@]1(N)Cc2c(O)c3c(c(O)c2[C@@H](O[C@H]2C[C@H](O)[C@H](O)CO2)C1)C(=O)c1ccccc1C3=O.Cl [Amrubicin hydrochloride] | excellent in heat stability | – | – | – | – | – | – | – | – | – | – | –
2 | CC(=O)[C@]1(N)Cc2c(O)c3c(c(O)c2[C@@H](O[C@H]2C[C@H](O)[C@H](O)CO2)C1)C(=O)c1ccccc1C3=O [amrubicin, (7S,9S)-9-Acetyl-9-amino-7-[(2-deoxy-β-D-erythro-pentapyranosyl)oxy]-7,8,9,10-tetrahydro-6,11-dihydroxy-5,12-nephthacenedione] | – | approximately 1/10 | more potent antitumor activity than doxorubicin | almost no cardiotoxicity | 25 | 79 | 23.0 | 4.9 | 52.5 | 4.9 | 72.1 | 14.8
3 | CC(O)[C@]1(N)Cc2c(O)c3c(c(O)c2[C@@H](O[C@H]2C[C@H](O)[C@H](O)CO2)C1)C(=O)c1ccccc1C3=O (stereo partly shown) [amrubicinol] | – | approximately 1/10 | – | – | – | – | – | – | – | – | – | –
